Each structure is given as a SMILES string. Where a name gives a salt, the structure may show the parent alone.

In one test the target is hNav1.7 (Homo sapiens (Human), UniProt Q15858). As to the kind of experiment: Tritiated sulfonamide competitive binding to membranes from cells expressing hNav1.7 and the β1 subunit.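 Also: Filter-bound radioactivity counted by liquid scintillation, nonspecific binding defined with excess unlabelled ligand, IC50 fitted to percent inhibition of specific binding.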
Sequence of hNav1.7 (Q15858 other isoform, or with tags, fused parts or gaps): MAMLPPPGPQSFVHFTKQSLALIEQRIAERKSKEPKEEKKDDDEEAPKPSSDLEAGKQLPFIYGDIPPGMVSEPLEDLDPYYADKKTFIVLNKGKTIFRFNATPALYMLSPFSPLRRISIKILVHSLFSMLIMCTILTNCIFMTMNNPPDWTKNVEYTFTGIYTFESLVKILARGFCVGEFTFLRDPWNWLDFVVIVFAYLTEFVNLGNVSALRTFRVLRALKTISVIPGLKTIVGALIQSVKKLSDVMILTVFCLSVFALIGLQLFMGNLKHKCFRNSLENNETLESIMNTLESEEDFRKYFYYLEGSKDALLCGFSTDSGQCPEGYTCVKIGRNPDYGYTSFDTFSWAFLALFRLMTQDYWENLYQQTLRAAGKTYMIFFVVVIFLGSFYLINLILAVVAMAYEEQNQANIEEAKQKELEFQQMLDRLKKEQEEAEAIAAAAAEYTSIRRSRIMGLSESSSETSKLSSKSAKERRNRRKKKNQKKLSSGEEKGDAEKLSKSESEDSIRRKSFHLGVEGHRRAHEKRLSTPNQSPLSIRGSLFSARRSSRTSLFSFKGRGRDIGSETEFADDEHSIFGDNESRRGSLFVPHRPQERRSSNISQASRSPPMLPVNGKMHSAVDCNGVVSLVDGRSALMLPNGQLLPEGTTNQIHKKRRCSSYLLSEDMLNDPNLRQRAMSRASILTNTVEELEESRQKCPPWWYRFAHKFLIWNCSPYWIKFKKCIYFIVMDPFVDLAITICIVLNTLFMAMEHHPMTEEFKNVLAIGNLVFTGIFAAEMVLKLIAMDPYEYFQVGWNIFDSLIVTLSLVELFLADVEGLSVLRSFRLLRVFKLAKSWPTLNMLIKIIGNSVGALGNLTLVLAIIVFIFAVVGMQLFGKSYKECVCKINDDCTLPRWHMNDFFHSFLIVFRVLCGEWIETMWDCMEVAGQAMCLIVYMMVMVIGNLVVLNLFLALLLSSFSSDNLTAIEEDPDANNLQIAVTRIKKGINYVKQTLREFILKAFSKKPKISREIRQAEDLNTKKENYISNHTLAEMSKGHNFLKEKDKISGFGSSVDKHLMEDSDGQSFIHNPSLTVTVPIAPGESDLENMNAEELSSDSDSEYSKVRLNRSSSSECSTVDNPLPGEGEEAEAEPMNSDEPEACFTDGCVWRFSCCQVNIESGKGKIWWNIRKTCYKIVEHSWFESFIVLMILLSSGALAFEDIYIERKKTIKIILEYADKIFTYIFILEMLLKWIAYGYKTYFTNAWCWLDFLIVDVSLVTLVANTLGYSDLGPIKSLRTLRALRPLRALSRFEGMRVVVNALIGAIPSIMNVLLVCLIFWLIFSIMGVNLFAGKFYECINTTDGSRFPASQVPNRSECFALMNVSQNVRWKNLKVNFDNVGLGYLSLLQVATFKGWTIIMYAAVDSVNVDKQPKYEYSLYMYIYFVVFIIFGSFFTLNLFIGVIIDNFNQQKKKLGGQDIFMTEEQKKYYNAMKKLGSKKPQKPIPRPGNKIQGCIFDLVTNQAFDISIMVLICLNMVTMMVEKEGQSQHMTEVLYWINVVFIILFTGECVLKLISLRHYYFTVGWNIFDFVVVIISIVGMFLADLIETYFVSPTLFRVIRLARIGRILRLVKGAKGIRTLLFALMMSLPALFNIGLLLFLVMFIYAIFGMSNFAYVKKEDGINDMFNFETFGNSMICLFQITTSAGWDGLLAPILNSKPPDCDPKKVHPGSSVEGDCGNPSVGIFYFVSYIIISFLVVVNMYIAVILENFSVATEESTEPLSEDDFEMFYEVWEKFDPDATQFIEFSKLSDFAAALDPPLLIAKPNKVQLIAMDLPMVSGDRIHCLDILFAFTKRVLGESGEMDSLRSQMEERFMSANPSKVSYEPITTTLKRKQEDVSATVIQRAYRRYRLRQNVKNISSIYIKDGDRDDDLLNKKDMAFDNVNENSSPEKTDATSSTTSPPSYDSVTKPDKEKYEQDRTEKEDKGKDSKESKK
Sequence of hNav1.7 (Q07699 19-218 partner): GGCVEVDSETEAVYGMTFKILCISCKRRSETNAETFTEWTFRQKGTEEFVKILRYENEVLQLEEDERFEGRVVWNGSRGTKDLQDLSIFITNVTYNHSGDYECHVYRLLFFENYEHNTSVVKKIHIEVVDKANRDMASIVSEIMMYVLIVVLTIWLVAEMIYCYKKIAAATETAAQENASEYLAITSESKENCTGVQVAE
Settings: not given
`O=C(NS(=O)(=O)C1CC1)c1cc(C2CC2)c(CN2CCC(Oc3ccc(F)cc3)CC2)cc1F` [Example 508, 5-cyclopropyl-N-(cyclopropylsulfonyl)-2-fluoro-4-((4-(4-fluorophenoxy)piperidin-1-yl)methyl)benzamide, trifluoroacetic acid salt] yielded an IC50 of 0.044 µM. Same read-out and setting: the result for `CS(=O)(=O)NC(=O)c1cc(C2CC2)c(OCC2CCN(Cc3ccc(F)c(C#N)c3)CC2)cc1F` [Example 591, 4-((1-(3-cyano-4-fluorobenzyl)piperidin-4-yl)methoxy)-5-cyclopropyl-2-fluoro-N-(methylsulfonyl)benzamide] reads 0.24 µM.

`CS(=O)(=O)NC(=O)c1cc(C2CC2)c(O[C@@H]2CCCN(Cc3ccc(F)cc3)C2)cc1F` [Example 20, (R)-5-cyclopropyl-2-fluoro-4-((1-(4-fluorobenzyl)piperidin-3-yl)oxy)-N-(methlysulfonyl)benzamide] yielded an IC50 of 0.0309 µM. `CS(=O)(=O)NC(=O)c1cc(C2CC2)c(CN2CCC(Oc3ccccc3C(F)(F)F)CC2)cc1F` [Example 497, 5-cyclopropyl-2-fluoro-N-(methylsulfonyl)-4-((4-(2-(trifluoromethyl)phenoxy)piperidin-1-yl)methyl)benzamide] came in with an IC50 of 0.0143 µM.

The molecule `O=C(NS(=O)(=O)N1CCC1)c1cc(C2CC2)c(O[C@@H]2CCCN(Cc3ccc(F)cc3F)C2)cc1F` [Example 8, (R)—N-(azetidin-1-ylsulfonyl)-5-cyclopropyl-4-((1-(2,4-difluorobenzyl)-piperidin-3-yl)oxy)-2-fluorobenzamide] showed an IC50 of 0.0081 µM.

In turn, `O=C(NS(=O)(=O)N1CCC1)c1cc(C2CC2)c(O[C@@H]2CCCN(CC3CCCCC3)C2)cc1F` [Example 11, (R)—N-(azetidin-1-ylsulfonyl)-4-((1-(cyclohexylmethyl)piperidin-3-yl)oxy)-5-cyclopropyl-2-fluorobenzamide] yielded an IC50 of 0.0474 µM. On the same count and under the same terms, the result for `O=C(NS(=O)(=O)C1CC1)c1cc(C2CC2)c(CN2CCC(Oc3cc(Cl)cc(OC(F)(F)F)c3)CC2)cc1F` [Example 549, 4-((4-(3-chloro-5-(trifluoromethoxy)phenoxy)piperidin-1-yl)methyl)-5-cyclopropyl-N-(cyclopropylsulfonyl)-2-fluorobenzamide, trifluoroacetic acid salt] reads 0.0044 µM.

The test is the same for the next values; noted with them: read-out: Ligand Binding Assay; 100 pM [3H]compound, membranes with hNav1.7 and β1 subunit, 18 h, room temperature.
With `O=C(NS(=O)(=O)N1CCC1)c1cc(C2CC2)c(OCC2CCN(C3(c4cc(Cl)cc(Cl)c4)COC3)CC2)cc1F` [Example 176], the IC50 came out at 0.0091 µM. Still for that read-out and setting: under `CS(=O)(=O)NC(=O)c1cc(C2CC2)c(OC2CC3(C2)CN(Cc2ccc(F)cc2Cl)C3)cc1F` [Example 320, 4-((2-(2-chloro-4-fluorobenzyl)-2-azaspiro[3.3]heptan-6-yl)oxy)-5-cyclopropyl-2-fluoro-N-(methylsulfonyl)benzamide, trifluoroacetic acid salt] stands 0.213 µM. In the case of `Cc1cc(F)ccc1S(=O)(=O)N1CCC(COc2cc(F)c(C(=O)NS(=O)(=O)C3CC3)cc2C2CC2)CC1` [Example 387, 5-cyclopropyl-N-(cyclopropylsulfonyl)-2-fluoro-4-((1-((4-fluoro-2-methylphenyl)sulfonyl)piperidin-4-yl)methoxy)benzamide], the IC50 was 0.0133 µM. On the same count and under the same terms, under `O=C(NS(=O)(=O)N1CCC1)c1cc(C2CC2)c(OCC2CC3CCC(C2)N3Cc2ccccc2Cl)cc1F` (stereo not drawn) [Example 47, N-(azetidin-1-ylsulfonyl)-4-((8-(2-chlorobenzyl)-8-azabicyclo[3.2.1]octan-3-yl)methoxy)-5-cyclopropyl-2-fluorobenzamide] stands 0.0251 µM; under `O=C(NS(=O)(=O)C1CC1)c1cc(C2CC2)c(OCC2CCN(S(=O)(=O)c3ccc(Br)c(F)c3)CC2)cc1F` [Example 369, 4-((1-((4-bromo-3-fluorophenyl)sulfonyl)piperidin-4-yl)methoxy)-5-cyclopropyl-N-(cyclopropylsulfonyl)-2-fluorobenzamide], 0.0145 µM.

As to `CC(c1cc(Cl)cc(Cl)c1)N1CC(COc2cc(F)c(C(=O)NS(C)(=O)=O)cc2C2CC2)C1` (stereo not drawn) [Example 98, 5-Cyclopropyl-4-((1-(1-(3,5-dichlorophenyl)ethyl)azetidin-3-yl)methoxy)-2-fluoro-N-(methylsulfonyl)benzamide], the IC50 stood at 0.00751 µM. On the same count and under the same terms, the result for `C[C@H](c1ccc(F)cc1)N1CCC[C@@H](Oc2cc(F)c(C(=O)NS(C)(=O)=O)cc2C2CC2)C1` [Example 316, 5-cyclopropyl-2-fluoro-4-(((R)-1-((R)-1-(4-fluorophenyl)ethyl)piperidin-3-yl)oxy)-N-(methylsulfonyl)benzamide] reads 0.0372 µM; that for `CS(=O)(=O)NC(=O)c1cc(C2CC2)c(OCC2CN([C@@H](c3ccccc3)c3ccc(S(C)(=O)=O)cc3)C2)cc1F` [Example 95, (S)-5-Cyclopropyl-2-fluoro-N-(methylsulfonyl)-4-((1-((4-(methylsulfonyl)phenyl)(phenyl)methyl)azetidin-3-yl)methoxy)benzamide], 1.06 µM.

As for `O=C(NS(=O)(=O)N1CCC1)c1cc(C2CC2)c(OCC2CCN(CCC(F)(F)F)CC2)cc1F` [Example 194, N-(azetidin-1-ylsulfonyl)-5-cyclopropyl-2-fluoro-4-((1-(3,3,3-trifluoropropyl)piperidin-4-yl)methoxy)benzamide], the IC50 was 0.18 µM. On the same count and under the same terms, the result for `CS(=O)(=O)NC(=O)c1cc(C2CC2)c(OCC2CCN(Cc3ccc(C(F)(F)F)c(F)c3)CC2)cc1F` [Example 247, 5-cyclopropyl-2-fluoro-4-((1-(3-fluoro-4-(trifluoromethyl)benzyl)piperidin-4-yl)methoxy)-N-(methylsulfonyl)benzamide] reads 0.0089 µM. For the molecule `O=C(NS(=O)(=O)C1CC1)c1cc(C2CC2)c(OCC2CCN(C(=O)c3cc(Cl)cc(Cl)c3)CC2)cc1F` [Example 254, 5-Cyclopropyl-N-(cyclopropylsulfonyl)-4-((1-(3,5-dichlorobenzoyl)piperidin-4-yl)methoxy)-2-fluorobenzamide], the IC50 was determined as 0.026 µM.

Regarding `O=C(NS(=O)(=O)C1CC1)c1cc(C2CC2)c(OCC2CCN(C(=O)c3ccc(Cl)c(Cl)c3)CC2)cc1F` [Example 233, 5-Cyclopropyl-N-(cyclopropylsulfonyl)-4-((1-(3,4-dichlorobenzoyl)piperidin-4-yl)methoxy)-2-fluorobenzamide], the IC50 worked out at 0.031 µM. On the same count and under the same terms, under `CC1(COc2cc(F)c(C(=O)NS(=O)(=O)C3CC3)cc2C2CC2)CCN(c2cc(C(F)(F)F)c(Cl)cn2)CC1` [Example 557, 4-((1-(5-chloro-4-(trifluoromethyl)pyridin-2-yl)-4-methylpiperidin-4-yl)methoxy)-5-cyclopropyl-N-(cyclopropylsulfonyl)-2-fluorobenzamide] stands 0.0027 µM; under `Cc1cc(F)ccc1S(=O)(=O)N1CCC(COc2cc(F)c(C(=O)NS(C)(=O)=O)cc2C2CC2)CC1` [Example 386, 5-cyclopropyl-2-fluoro-4-((1-((4-fluoro-2-methylphenyl)sulfonyl)piperidin-4-yl)methoxy)-N-(methylsulfonyl)benzamide], 0.0521 µM. Same read-out and setting: the result for `CC(c1cc(Cl)cc(Cl)c1)N1CCC(COc2cc(F)c(C(=O)NS(C)(=O)=O)cc2C2CC2)CC1` (stereo not drawn) [Example 97, 5-Cyclopropyl-4-((1-(1-(3,5-dichlorophenyl)ethyl)piperidin-4-yl)methoxy)-2-fluoro-N-(methylsulfonyl)benzamide] reads 0.00269 µM. The same measure, in the same setting: under `C[C@H](c1cc(Cl)cc(Cl)c1)N1CCC(COc2cc(F)c(C(=O)NS(C)(=O)=O)cc2C2CC2)CC1` [Example 99, (R)-5-Cyclopropyl-4-((1-(1-(3,5-dichlorophenyl)ethyl)piperidin-4-yl)methoxy)-2-fluoro-N-(methylsulfonyl)-benzamide] stands 0.00389 µM; under `CS(=O)(=O)NC(=O)c1cc(C2CC2)c(OCC2CCN(Cc3cc(Cl)c(F)c(Cl)c3)CC2)cc1F` [Example 454, 5-cyclopropyl-4-((1-(3,5-dichloro-4-fluorobenzyl)piperidin-4-yl)methoxy)-2-fluoro-N-(methylsulfonyl)benzamide, trifluoroacetic acid salt], 0.005 µM. Turning to `CS(=O)(=O)NC(=O)c1cc(C2CC2)c(OCC2CCN(C(c3ccccc3)c3cc(Cl)cc(Cl)c3)CC2)cc1F` (stereo not drawn) [Example 412, 5-cyclopropyl-4-((1-((3,5-dichlorophenyl)(phenyl)methyl)piperidin-4-yl)methoxy)-2-fluoro-N-(methylsulfonyl)benzamide, trifluoroacetic acid salt], the IC50 came out at 0.0015 µM. On to `CS(=O)(=O)NC(=O)c1cc(C2CC2)c(O[C@@H]2CCCN(Cc3ccc4c(c3)OCCO4)C2)cc1F` [Example 429, (R)-5-cyclopropyl-4-((1-((2,3-dihydrobenzo[b][1,4]dioxin-6-yl)methyl)piperidin-3-yl)oxy)-2-fluoro-N-(methylsulfonyl)benzamide, trifluoroacetic acid salt], for which the IC50 is 0.0519 µM. The same measure, in the same setting: under `CS(=O)(=O)NC(=O)c1cc(C2CC2)c(OCC2CCN(C(=O)c3ccc(Cl)c(Cl)c3)CC2)cc1F` [Example 232, 5-Cyclopropyl-4-((1-(3,4-dichlorobenzoyl)piperidin-4-yl)methoxy)-2-fluoro-N-(methylsulfonyl)benzamide] stands 0.064 µM; under `CS(=O)(=O)NC(=O)c1cc(C2CC2)c(OCC2CN([C@@H](c3ccccc3)c3ccccn3)C2)cc1F` [Example 118, (S)-5-Cyclopropyl-2-fluoro-N-(methylsulfonyl)-4-((1-(phenyl(pyridin-2-yl)methyl)azetidin-3-yl)methoxy)benzamide], 0.417 µM.

Turning to `C[C@H](c1cc(F)cc(Cl)c1)N1CCC(COc2cc(F)c(C(=O)NS(C)(=O)=O)cc2C2CC2)CC1` (single isomer, unassigned) [Example 230], the IC50 came out at 0.0044 µM. On the same count and under the same terms, the result for `O=C(NS(=O)(=O)C1CC1)c1cc(C2CC2)c(OCC2CCN(S(=O)(=O)c3cc(F)c(F)c(F)c3)CC2)cc1F` [Example 381, 5-cyclopropyl-N-(cyclopropylsulfonyl)-2-fluoro-4-((1-((3,4,5-trifluorophenyl)sulfonyl)piperidin-4-yl)methoxy)benzamide] reads 0.0148 µM.

Source of the values: patent US9546164B2 (GENENTECH, INC., priority 2013, dated 2017).
